Measurements published in the NIST ThermoML archive (doi:10.1016/j.jct.2017.10.016).

Assay: xn = mol fraction of the nth substance listed
Details: Liquid, Buoyancy - hydrostatic balance with magnetic suspension - one sinker

C=C(F)C(F)(F)F [2,3,3,3-tetrafluoro-1-propene] + CCC
Details | mass density [kg/m3]
255.05 K, x1 = 0.217 | 705.65
255.24 K, x1 = 0.322 | 772.45
257.01 K, x1 = 0.422 | 831.62
259.89 K, x1 = 0.322 | 763.53
259.9 K, x1 = 0.533 | 897.69
260.22 K, x1 = 0.217 | 695.43
260.27 K, x1 = 0.422 | 825.19
264.82 K, x1 = 0.322 | 754.19
264.85 K, x1 = 0.533 | 887.37
264.95 K, x1 = 0.217 | 686.56
265.38 K, x1 = 0.422 | 815.01
269.81 K, x1 = 0.533 | 876.78
269.89 K, x1 = 0.217 | 677.65
269.95 K, x1 = 0.322 | 744.13
270.15 K, x1 = 0.422 | 805.93
270.16 K, x1 = 0.113 | 610.61
274.77 K, x1 = 0.533 | 865.74
274.83 K, x1 = 0.217 | 668.53
274.96 K, x1 = 0.113 | 602.76
275.02 K, x1 = 0.625 | 920.19
275.16 K, x1 = 0.422 | 794.82
275.2 K, x1 = 0.322 | 733.29
279.91 K, x1 = 0.217 | 658.85
279.98 K, x1 = 0.422 | 784.38
280.01 K, x1 = 0.113 | 594.34
280.03 K, x1 = 0.322 | 723.1
280.14 K, x1 = 0.625 | 907.78
280.17 K, x1 = 0.533 | 852.23
284.9 K, x1 = 0.322 | 712.55
284.91 K, x1 = 0.217 | 649.05
284.93 K, x1 = 0.113 | 585.81
284.95 K, x1 = 0.533 | 840.56
284.97 K, x1 = 0.422 | 774.16
285.18 K, x1 = 0.625 | 895.02
289.94 K, x1 = 0.533 | 828.05
289.97 K, x1 = 0.422 | 762.51
290 K, x1 = 0.533 | 827.87
290.02 K, x1 = 0.113 | 576.78
290.02 K, x1 = 0.217 | 638.62
290.08 K, x1 = 0.322 | 700.83
290.11 K, x1 = 0.625 | 882
294.96 K, x1 = 0.322 | 689.46
294.96 K, x1 = 0.422 | 750.87
294.97 K, x1 = 0.533 | 815.76
295 K, x1 = 0.113 | 567.56
295.22 K, x1 = 0.625 | 868.11
299.04 K, x1 = 0.422 | 742.17
299.86 K, x1 = 0.113 | 558.16
299.91 K, x1 = 0.533 | 803.63
300.13 K, x1 = 0.625 | 854.48
